Source: patent US9802918B2, “Pyridineamine compounds useful as Pim kinase inhibitors” (Incyte Corporation, priority 2015, dated 2017)

What was measured:
Type in all cases: biochemical
Pim-3 = Pim-3 (Homo sapiens (Human), UniProt Q86V86); assay: Pim-3 kinase assay; conditions: 1 mM ATP; read-out: Pim3 IC50
Method in brief: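 Human Pim-3 at 1.25 pM phosphorylated […] biotin-BAD peptide with 1 mM ATP for 1 h at 25° C, in pH 7.5 Tris buffer with 5 mM MgCl2 and 5 mM DTT. Reactions were stopped with EDTA buffer containing phospho-Bad (Ser112) antibody and AlphaScreen donor/acceptor beads. Plates were read after 1 h dark incubation at room temperature.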

Pim-2 = Pim-2 (Homo sapiens (Human), UniProt Q9P1W9); assay: Pim-2 kinase assay; conditions: 1 mM ATP; read-out: Pim2 IC50
Method in brief: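 Pim-2 (1 nM) with fluorescein-CREBtide ([…]) and 1 mM ATP in Tris pH 7.5, MgCl2, DTT buffer, 2 h at 25 °C. Stopped with EDTA plus Tb-anti-CREB pSer133 antibody; phosphorylation read by TR-FRET after 30 min.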

Pim-1 = Pim-1 (Homo sapiens (Human), UniProt P11309); assay: Pim-1 kinase assay; conditions: 1 mM ATP; read-out: Pim1 IC50
Description: Supplementation of the STOP buffer with beads and stopping the reactions were done under reduced light. Prior to the stopping reactions STOP buffer with beads was preincubated for 1 h in the dark at room temperature. After stopping the reactions, plates were incubated for 1 h in the dark at room temperature before reading on a PHERAstar FS plate reader (BMG Labtech) under reduced light.

Sequence of Pim-2 (Q9P1W9 whole entry): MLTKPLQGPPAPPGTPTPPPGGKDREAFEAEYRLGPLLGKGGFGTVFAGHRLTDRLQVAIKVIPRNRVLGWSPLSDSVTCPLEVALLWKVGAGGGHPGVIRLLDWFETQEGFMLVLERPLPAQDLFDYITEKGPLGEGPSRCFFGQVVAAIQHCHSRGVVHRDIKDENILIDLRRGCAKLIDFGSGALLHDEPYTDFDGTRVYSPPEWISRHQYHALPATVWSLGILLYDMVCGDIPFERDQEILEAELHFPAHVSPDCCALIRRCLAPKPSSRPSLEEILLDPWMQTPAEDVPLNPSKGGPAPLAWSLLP
Sequence of Pim-1 (P11309 whole entry): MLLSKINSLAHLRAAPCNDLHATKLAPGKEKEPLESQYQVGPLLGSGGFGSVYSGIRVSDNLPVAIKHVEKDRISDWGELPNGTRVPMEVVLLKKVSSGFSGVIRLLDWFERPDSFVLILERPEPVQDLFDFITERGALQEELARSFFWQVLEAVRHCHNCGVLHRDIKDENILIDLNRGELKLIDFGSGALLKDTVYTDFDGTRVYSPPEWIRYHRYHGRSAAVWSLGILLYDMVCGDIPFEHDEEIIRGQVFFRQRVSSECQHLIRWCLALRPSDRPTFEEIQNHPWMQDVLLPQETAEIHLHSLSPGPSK

SMILES | IC50 (Pim-3) | IC50 (Pim-2) | IC50 (Pim-1)
C[C@@H]1C[C@H](N)CN(c2ccncc2NCc2ccc(F)c(-c3c(F)cc(OC4CCOCC4)cc3F)n2)C1 [Example 78, 4-[(3S,5R)-3-Amino-5-methylpiperidin-1-yl]-N-({6-[2,6-difluoro-4-(tetrahydro-2H-pyran-4-yloxy)phenyl]-5-fluoropyridin-2-yl}methyl)pyridin-3-amine] | ≤ 10 nM | ≤ 100 nM | < 10 nM
COc1cc(F)c(-c2nc(CNc3cnccc3N3C[C@@H](N)[C@H](O)[C@@H](C)C3)ccc2F)c(F)c1 [Example 82, (3R,4R,5S)-3-Amino-1-[3-({[6-(2,6-difluoro-4-methoxyphenyl)-5-fluoropyridin-2-yl]methyl}amino)pyridin-4-yl]-5-methylpiperidin-4-ol] | ≤ 10 nM | ≤ 100 nM | < 10 nM
COc1cc(F)c(-c2nc(CNc3cnccc3N3C[C@H](C)C[C@H](N)C3)ccc2F)c(F)c1 [Example 83, 4-[(3S,5R)-3-Amino-5-methylpiperidin-1-yl]-N-{[6-(2,6-difluoro-4-methoxyphenyl)-5-fluoropyridin-2-yl]methyl}pyridin-3-amine] | ≤ 10 nM | ≤ 100 nM | < 10 nM
C[C@@H]1C[C@H](N)CN(c2ccncc2NCc2ccc(F)c(-c3ccc(C#N)cc3F)n2)C1 [Example 84, 4-{6-[({4-[(3S,5R)-3-Amino-5-methylpiperidin-1-yl]pyridin-3-yl}amino)methyl]-3-fluoropyridin-2-yl}-3-fluorobenzonitrile] | ≤ 10 nM | 100 to 1000 nM | < 10 nM
C[C@@H]1C[C@H](N)CN(c2ccncc2NCc2ccc(F)c(-c3ccc4sccc4c3)n2)C1 [Example 85, 4-[(3S,5R)-3-Amino-5-methylpiperidin-1-yl]-N-{[6-(1-benzothien-5-yl)-5-fluoropyridin-2-yl]methyl}pyridin-3-amine] | ≤ 10 nM | 100 to 1000 nM | < 10 nM
C[C@@H]1C[C@H](N)CN(c2ccncc2NCc2ccc(F)c(-c3ccc4c(c3)NC(=O)C4)n2)C1 [Example 86, 6-{6-[({4-[(3S,5R)-3-Amino-5-methylpiperidin-1-yl]pyridin-3-yl}amino)methyl]-3-fluoropyridin-2-yl}-1,3-dihydro-2H-indol-2-one] | ≤ 10 nM | 100 to 1000 nM | < 10 nM
C[C@H]1CN(c2c(NCc3ccc(F)c(-c4c(F)cccc4F)n3)cnc3c2CCO3)C[C@@H](N)[C@@H]1O [Example 88, (3R,4R,5S)-3-Amino-1-[5-({[6-(2,6-difluorophenyl)-5-fluoropyridin-2-yl]methyl}amino)-2,3-dihydrofuro[2,3-b]pyridin-4-yl]-5-methylpiperidin-4-ol] | ≤ 10 nM | 1000 to 10000 nM | < 10 nM
C[C@@H]1C[C@H](N)CN(c2c(NCc3ccc(F)c(-c4c(F)cccc4F)n3)cnc3c2CCC3)C1 [Example 89, 4-[(3S,5R)-3-Amino-5-methylpiperidin-1-yl]-N-{[6-(2,6-difluorophenyl)-5-fluoropyridin-2-yl]methyl}-6,7-dihydro-5H-cyclopenta[b]pyridin-3-amine] | ≤ 10 nM | 100 to 1000 nM | < 10 nM
N[C@@H]1CN(c2ccncc2NCc2ccc(F)c(-c3c(F)cccc3F)n2)CC[C@H]1F [Example 90, 4-[(3R,4R)-3-Amino-4-fluoropiperidin-1-yl]-N-{[6-(2,6-difluorophenyl)-5-fluoropyridin-2-yl]methyl}pyridin-3-amine] | ≤ 10 nM | 1000 to 10000 nM | < 10 nM
C[C@@H]1C[C@H](N)CN(c2ccncc2NCc2ccc3ccc(-c4ccc5c(c4)OCC5)cc3n2)C1 [Example 91, 4-[(3S,5R)-3-Amino-5-methylpiperidin-1-yl]-N-{[7-(2,3-dihydro-1-benzofuran-6-yl)quinolin-2-yl]methyl}pyridin-3-amine] | ≤ 10 nM | 100 to 1000 nM | < 10 nM
C[C@@H]1C[C@H](N)CN(c2ccncc2NCc2ccc3ccc(-c4ccn5ccnc5c4)cc3n2)C1 [Example 92, 4-[(3S,5R)-3-Amino-5-methylpiperidin-1-yl]-N-[(7-imidazo[1,2-a]pyridin-7-ylquinolin-2-yl)methyl]pyridin-3-amine] | ≤ 10 nM | 100 to 1000 nM | < 10 nM
C[C@H]1CN(c2ccncc2NCc2ccc3ccc(-c4ccn5ccnc5c4)cc3n2)C[C@@H](N)[C@@H]1O [Example 93, (3R,4R,5S)-3-Amino-1-(3-{[(7-imidazo[1,2-a]pyridin-7-ylquinolin-2-yl)methyl]amino}pyridin-4-yl)-5-methylpiperidin-4-ol] | ≤ 10 nM | 100 to 1000 nM | < 10 nM
C[C@H]1CN(c2ccncc2NCc2ccc3occ(-c4c(F)cc(CO)cc4F)c3n2)C[C@@H](N)[C@@H]1O [Example 96, (3R,4R,5S)-3-amino-1-(3-(((3-(2,6-difluoro-4-(hydroxymethyl)phenyl)furo[3,2-b]pyridin-5-yl)methyl)amino)pyridin-4-yl)-5-methylpiperidin-4-ol] | ≤ 10 nM | 100 to 1000 nM | < 10 nM
C[C@H]1CN(c2ccncc2NCc2ccc3occ(-c4ccc(CO)cc4F)c3n2)C[C@@H](N)[C@@H]1O [Example 97, (3R,4R,5S)-3-amino-1-(3-(((3-(2-fluoro-4-(hydroxymethyl)phenyl)furo[3,2-b]pyridin-5-yl)methyl)amino)pyridin-4-yl)-5-methylpiperidin-4-ol] | ≤ 10 nM | 100 to 1000 nM | 10 to 50 nM
CC(C)c1coc2ccc(CNc3cnccc3N3C[C@H](C)C[C@H](N)C3)nc12 [Example 98, 4-[(3S,5R)-3-Amino-5-methylpiperidin-1-yl]-N-[(3-isopropylfuro[3,2-b]pyridin-5-yl)methyl]pyridin-3-amine] | ≤ 10 nM | 100 to 1000 nM | < 10 nM
C[C@@H]1C[C@H](N)CN(c2ccncc2NCc2ccc3occ(-c4c(F)cc(CO)cc4F)c3n2)C1 [Example 99, (4-(5-((4-((3S,5R)-3-amino-5-methylpiperidin-1-yl)pyridin-3-ylamino)methyl)furo[3,2-b]pyridin-3-yl)-3,5-difluorophenyl)methanol] | ≤ 10 nM | ≤ 100 nM | < 10 nM
C[C@@H]1C[C@H](N)CN(c2ccncc2NCc2ccc3occ(-c4ccc(CO)cc4F)c3n2)C1 [Example 100, (4-(5-((4-((3S,5R)-3-amino-5-methylpiperidin-1-yl)pyridin-3-ylamino)methyl)furo[3,2-b]pyridin-3-yl)-3-fluorophenyl)methanol] | ≤ 10 nM | ≤ 100 nM | < 10 nM
C[C@@H]1C[C@H](N)CN(c2ccncc2NCc2ccc3occ(C4CC4)c3n2)C1 [Example 102, 4-[(3S,5R)-3-Amino-5-methylpiperidin-1-yl]-N-[(3-cyclopropylfuro[3,2-b]pyridin-5-yl)methyl]pyridin-3-amine] | ≤ 10 nM | 100 to 1000 nM | < 10 nM
C[C@@H]1C[C@H](N)CN(c2ccncc2NCc2ccc(F)c(-c3c(F)cc(OCC(C)(C)O)cc3F)n2)C1 [Example 103, 1-(4-{6-[({4-[(3S,5R)-3-Amino-5-methylpiperidin-1-yl]pyridin-3-yl}amino)methyl]-3-fluoropyridin-2-yl}-3,5-difluorophenoxy)-2-methylpropan-2-ol] | ≤ 10 nM | ≤ 100 nM | < 10 nM
C[C@H]1CN(c2ccncc2NCc2ccc(F)c(-c3c(F)cc(OCC(C)(C)O)cc3F)n2)C[C@@H](N)[C@@H]1O [Example 104, (3R,4R,5S)-3-Amino-1-{3-[({6-[2,6-difluoro-4-(2-hydroxy-2-methylpropoxy)phenyl]-5-fluoropyridin-2-yl}methyl)amino]pyridin-4-yl}-5-methylpiperidin-4-ol] | ≤ 10 nM | 100 to 1000 nM | < 10 nM
C[C@@H]1C[C@H](N)CN(c2ccncc2NCc2ccc(F)c(-c3c(F)cc(C(C)(C)O)cc3F)n2)C1 [Example 105, 2-(4-{6-[({4-[(3S,5R)-3-Amino-5-methylpiperidin-1-yl]pyridin-3-yl}amino)methyl]-3-fluoropyridin-2-yl}-3,5-difluorophenyl)propan-2-ol] | ≤ 10 nM | ≤ 100 nM | < 10 nM
C[C@H]1CN(c2ccncc2NCc2ccc(F)c(-c3c(F)cc(C(C)(C)O)cc3F)n2)C[C@@H](N)[C@@H]1O [Example 106, (3R,4R,5S)-3-Amino-1-{3-[({6-[2,6-difluoro-4-(1-hydroxy-1-methylethyl)phenyl]-5-fluoropyridin-2-yl}methyl)amino]pyridin-4-yl}-5-methylpiperidin-4-ol] | ≤ 10 nM | ≤ 100 nM | < 10 nM
C[C@H]1CN(c2ccncc2NCc2ccc3ccc(-c4ccn(C)c(=O)c4F)cc3n2)C[C@@H](N)[C@@H]1O [Example 107, 4-{2-[({4-[(3R,4R,5S)-3-Amino-4-hydroxy-5-methylpiperidin-1-yl]pyridin-3-yl}amino)methyl]quinolin-7-yl}-3-fluoro-1-methylpyridin-2(1H)-one] | ≤ 10 nM | ≤ 100 nM | < 10 nM
C[C@@H]1C[C@H](N)CN(c2ccncc2NCc2nc(-c3c(F)cccc3F)c(F)cc2N)C1 [Example 108, 2-[({4-[(3S,5R)-3-Amino-5-methylpiperidin-1-yl]pyridin-3-yl}amino)methyl]-6-(2,6-difluorophenyl)-5-fluoropyridin-3-amine] | ≤ 10 nM | ≤ 100 nM | < 10 nM
